Source: ChEMBL document CHEMBL3351497, “Structure Activity Relationships of αv Integrin Antagonists for Pulmonary Fibrosis by Variation in Aryl Substituents” (ACS Med Chem Lett, 2014)

Assays:
[1] = molecular target: T1, Integrin alpha-V/beta-6 (Homo sapiens, UniProt P06756+P18564); assay: Inhibition of integrin alphavbeta6 (unknown origin) by Merck AG cell assay; format: cell-based
[2] = molecular target: T1, Integrin alpha-V/beta-6; assay: Inhibition of integrin alphavbeta6 (unknown origin)-mediated K562 cell adhesion to LAPb1 coated surface by fluorescence analysis; format: cell-based
[3] = molecular target: T2, Integrin alpha-V/beta-3 (Homo sapiens, UniProt P05106+P06756); assay: Inhibition of integrin alphavbeta3 (unknown origin)-mediated K562 cell adhesion to LAPb1 coated surface by fluorescence analysis; format: cell-based
[4] = molecular target: Integrin alpha-V/beta-8 (Homo sapiens, UniProt P06756+P26012); assay: Inhibition of integrin alphavbeta8 (unknown origin)-mediated K562 cell adhesion to LAPb1 coated surface by fluorescence analysis; format: cell-based
[5] = molecular target: Integrin alpha-V/beta-5 (Homo sapiens, UniProt P06756+P18084); assay: Inhibition of integrin alphavbeta5 (unknown origin)-mediated K562 cell adhesion to vitronectin coated surface by fluorescence analysis; format: cell-based
[6] = Lipophilicity, log D of the compound by HPLC chromatographic method; format: physicochemical
[7] = tested on: K562; assay: Selectivity ratio of IC50 for integrin alphavbeta6 (unknown origin)-mediated K562 cell adhesion to LAPb1 coated surface to IC50 for integrin alphavbeta5 (unknown origin)-mediated K562 cell adhesion to vitronectin coated surface; format: cell-based; conditions: Homo sapiens
[8] = tested on: K562; assay: Selectivity ratio of IC50 for integrin alphavbeta8 (unknown origin)-mediated K562 cell adhesion to LAPb1 coated surface to IC50 for integrin alphavbeta5 (unknown origin)-mediated K562 cell adhesion to vitronectin coated surface; format: cell-based; conditions: Homo sapiens
[9] = tested on: K562; assay: Selectivity ratio of IC50 for integrin alphavbeta8 (unknown origin)-mediated K562 cell adhesion to LAPb1 coated surface to IC50 for integrin alphavbeta3 (unknown origin)-mediated K562 cell adhesion to LAPb1 coated surface; format: cell-based; conditions: Homo sapiens
[10] = tested on: K562; assay: Selectivity ratio of IC50 for integrin alphavbeta6 (unknown origin)-mediated K562 cell adhesion to LAPb1 coated surface to IC50 for integrin alphavbeta3 (unknown origin)-mediated K562 cell adhesion to LAPb1 coated surface; format: cell-based; conditions: Homo sapiens
[11] = molecular target: T2, Integrin alpha-V/beta-3; assay: Inhibition of integrin alphavbeta3 (unknown origin) by Merck binding assay; format: protein-complex assay

T2 sequence (P05106 27-788 limits assumed): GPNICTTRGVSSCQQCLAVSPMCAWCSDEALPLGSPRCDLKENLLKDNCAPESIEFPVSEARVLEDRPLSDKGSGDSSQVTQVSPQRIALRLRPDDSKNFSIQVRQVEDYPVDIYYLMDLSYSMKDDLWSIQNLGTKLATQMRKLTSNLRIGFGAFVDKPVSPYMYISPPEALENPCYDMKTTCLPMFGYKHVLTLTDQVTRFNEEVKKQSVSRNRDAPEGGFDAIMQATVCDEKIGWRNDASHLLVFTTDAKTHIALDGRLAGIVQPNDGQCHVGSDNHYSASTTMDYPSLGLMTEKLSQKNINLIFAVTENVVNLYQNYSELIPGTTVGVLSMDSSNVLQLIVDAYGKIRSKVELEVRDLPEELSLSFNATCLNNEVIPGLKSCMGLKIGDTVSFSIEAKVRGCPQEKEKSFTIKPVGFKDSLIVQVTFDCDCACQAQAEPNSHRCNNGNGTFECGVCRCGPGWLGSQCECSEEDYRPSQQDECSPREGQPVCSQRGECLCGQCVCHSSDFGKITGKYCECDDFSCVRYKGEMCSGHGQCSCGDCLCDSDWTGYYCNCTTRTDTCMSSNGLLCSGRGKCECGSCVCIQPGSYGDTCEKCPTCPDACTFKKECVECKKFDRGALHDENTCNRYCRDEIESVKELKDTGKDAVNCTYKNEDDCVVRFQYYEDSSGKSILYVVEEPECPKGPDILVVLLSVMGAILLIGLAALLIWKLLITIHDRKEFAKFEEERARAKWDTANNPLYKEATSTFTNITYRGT
T2 sequence (P06756 31-889 limits assumed): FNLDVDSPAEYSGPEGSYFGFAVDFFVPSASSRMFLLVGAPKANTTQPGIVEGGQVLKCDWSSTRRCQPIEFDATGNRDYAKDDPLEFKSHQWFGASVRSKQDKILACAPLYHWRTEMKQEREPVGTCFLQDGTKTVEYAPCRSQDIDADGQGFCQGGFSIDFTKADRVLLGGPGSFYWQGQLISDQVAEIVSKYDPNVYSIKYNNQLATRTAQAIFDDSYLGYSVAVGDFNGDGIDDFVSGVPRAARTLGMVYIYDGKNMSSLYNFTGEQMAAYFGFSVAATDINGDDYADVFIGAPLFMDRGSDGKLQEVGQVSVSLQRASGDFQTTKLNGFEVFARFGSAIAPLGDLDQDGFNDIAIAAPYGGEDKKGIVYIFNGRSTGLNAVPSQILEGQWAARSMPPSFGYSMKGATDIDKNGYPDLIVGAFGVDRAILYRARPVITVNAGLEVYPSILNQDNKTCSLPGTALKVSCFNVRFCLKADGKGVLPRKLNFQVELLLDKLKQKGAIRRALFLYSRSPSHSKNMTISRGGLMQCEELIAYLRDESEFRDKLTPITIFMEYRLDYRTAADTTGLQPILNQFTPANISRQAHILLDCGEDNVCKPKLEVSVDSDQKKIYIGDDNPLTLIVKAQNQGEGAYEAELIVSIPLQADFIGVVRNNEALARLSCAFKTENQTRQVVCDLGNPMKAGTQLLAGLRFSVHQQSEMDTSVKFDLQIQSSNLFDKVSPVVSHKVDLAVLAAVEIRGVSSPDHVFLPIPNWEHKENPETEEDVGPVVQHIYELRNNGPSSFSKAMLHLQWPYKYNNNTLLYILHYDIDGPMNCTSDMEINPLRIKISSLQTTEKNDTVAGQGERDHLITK
T2 sequence (P06756 891-1048 limits assumed): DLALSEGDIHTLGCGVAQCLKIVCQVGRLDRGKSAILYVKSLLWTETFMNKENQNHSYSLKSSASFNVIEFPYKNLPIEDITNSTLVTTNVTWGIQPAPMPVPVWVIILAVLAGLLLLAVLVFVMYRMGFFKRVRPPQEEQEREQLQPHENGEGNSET
Sequence of Integrin alpha-V/beta-5 (P06756 31-889 limits assumed): as the sequence (P06756 31-889 limits assumed) above
Sequence of Integrin alpha-V/beta-5 (P06756 891-1048 limits assumed): as the sequence (P06756 891-1048 limits assumed) above
Sequence of Integrin alpha-V/beta-5 (P18084 24-799 limits assumed): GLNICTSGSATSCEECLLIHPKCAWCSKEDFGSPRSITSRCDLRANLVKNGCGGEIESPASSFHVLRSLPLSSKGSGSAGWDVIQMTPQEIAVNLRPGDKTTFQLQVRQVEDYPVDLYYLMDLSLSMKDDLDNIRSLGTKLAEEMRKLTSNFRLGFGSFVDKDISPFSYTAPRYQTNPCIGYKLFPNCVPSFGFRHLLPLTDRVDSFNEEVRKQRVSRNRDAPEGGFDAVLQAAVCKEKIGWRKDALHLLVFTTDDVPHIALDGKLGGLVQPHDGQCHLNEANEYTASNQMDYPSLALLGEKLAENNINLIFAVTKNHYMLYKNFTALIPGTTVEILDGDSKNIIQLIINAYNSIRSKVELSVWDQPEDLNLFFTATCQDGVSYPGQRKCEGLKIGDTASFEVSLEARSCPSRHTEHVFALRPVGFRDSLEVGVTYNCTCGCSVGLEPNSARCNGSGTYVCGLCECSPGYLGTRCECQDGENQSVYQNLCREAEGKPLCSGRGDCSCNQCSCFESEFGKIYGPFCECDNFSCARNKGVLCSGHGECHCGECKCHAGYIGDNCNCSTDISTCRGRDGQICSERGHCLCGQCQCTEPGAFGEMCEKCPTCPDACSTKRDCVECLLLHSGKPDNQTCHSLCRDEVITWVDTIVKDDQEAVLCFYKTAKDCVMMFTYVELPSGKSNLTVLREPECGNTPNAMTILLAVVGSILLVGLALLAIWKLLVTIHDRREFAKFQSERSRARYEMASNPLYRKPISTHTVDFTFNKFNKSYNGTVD
T1 sequence (P06756 31-889 limits assumed): as the sequence (P06756 31-889 limits assumed) above
T1 sequence (P06756 891-1048 limits assumed): as the sequence (P06756 891-1048 limits assumed) above
T1 sequence (P18564 22-788 limits assumed): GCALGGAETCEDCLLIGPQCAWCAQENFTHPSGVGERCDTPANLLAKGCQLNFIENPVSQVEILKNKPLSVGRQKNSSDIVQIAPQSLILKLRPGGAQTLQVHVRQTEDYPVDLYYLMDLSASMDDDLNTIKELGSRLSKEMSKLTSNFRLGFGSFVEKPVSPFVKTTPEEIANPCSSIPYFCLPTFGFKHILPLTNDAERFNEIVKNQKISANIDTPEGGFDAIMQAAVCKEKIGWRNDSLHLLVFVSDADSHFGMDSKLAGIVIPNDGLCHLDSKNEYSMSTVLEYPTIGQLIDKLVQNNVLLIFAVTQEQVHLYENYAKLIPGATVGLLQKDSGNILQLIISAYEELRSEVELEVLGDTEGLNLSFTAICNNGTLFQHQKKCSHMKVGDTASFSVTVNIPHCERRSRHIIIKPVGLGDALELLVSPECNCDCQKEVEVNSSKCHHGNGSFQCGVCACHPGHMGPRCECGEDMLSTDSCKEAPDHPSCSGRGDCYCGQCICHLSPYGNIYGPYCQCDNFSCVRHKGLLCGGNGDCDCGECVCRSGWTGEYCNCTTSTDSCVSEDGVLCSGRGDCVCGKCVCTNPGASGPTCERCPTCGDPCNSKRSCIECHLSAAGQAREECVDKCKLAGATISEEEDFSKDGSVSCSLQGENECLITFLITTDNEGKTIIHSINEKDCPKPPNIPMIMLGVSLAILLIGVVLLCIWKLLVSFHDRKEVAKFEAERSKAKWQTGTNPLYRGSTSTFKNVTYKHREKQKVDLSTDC
Sequence of Integrin alpha-V/beta-8 (P06756 31-889 limits assumed): as the sequence (P06756 31-889 limits assumed) above
Sequence of Integrin alpha-V/beta-8 (P06756 891-1048 limits assumed): as the sequence (P06756 891-1048 limits assumed) above
Sequence of Integrin alpha-V/beta-8 (P26012 43-769 limits assumed): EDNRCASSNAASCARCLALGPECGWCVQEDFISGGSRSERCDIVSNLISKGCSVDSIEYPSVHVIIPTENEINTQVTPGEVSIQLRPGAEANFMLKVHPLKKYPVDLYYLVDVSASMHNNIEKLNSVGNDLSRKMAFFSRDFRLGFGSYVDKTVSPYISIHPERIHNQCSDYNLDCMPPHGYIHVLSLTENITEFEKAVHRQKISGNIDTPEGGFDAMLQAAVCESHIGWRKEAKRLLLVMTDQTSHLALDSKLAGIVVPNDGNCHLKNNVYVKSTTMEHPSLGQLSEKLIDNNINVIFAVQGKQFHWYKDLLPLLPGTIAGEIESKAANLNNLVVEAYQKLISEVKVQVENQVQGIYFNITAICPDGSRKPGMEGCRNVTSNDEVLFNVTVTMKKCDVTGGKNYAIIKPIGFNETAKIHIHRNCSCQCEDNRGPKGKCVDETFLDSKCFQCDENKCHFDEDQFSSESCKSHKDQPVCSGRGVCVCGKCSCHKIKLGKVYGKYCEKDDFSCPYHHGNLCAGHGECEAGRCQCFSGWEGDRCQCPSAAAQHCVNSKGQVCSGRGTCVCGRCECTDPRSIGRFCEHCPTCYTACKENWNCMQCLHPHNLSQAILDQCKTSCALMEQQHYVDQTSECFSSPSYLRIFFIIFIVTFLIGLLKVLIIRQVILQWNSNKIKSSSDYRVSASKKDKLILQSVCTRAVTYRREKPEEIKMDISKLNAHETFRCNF

| IC50 [1] | IC50 [2] | IC50 [3] | IC50 [4] | IC50 [5] | chromatographic logD [6] | IC50 [11] | logD [6] | Structure (SMILES) | Ratio IC50 [7] | Ratio IC50 [8] | Ratio IC50 [9] | Ratio IC50 [10] |
| --- | --- | --- | --- | --- | --- | --- | --- | --- | --- | --- | --- | --- |
| 200 nM | 1000 nM | – | – | – | – | – | – | O=C(O)C[C@H](NC(=O)C(COCc1ccccc1)NC(=O)CCCCNc1ccccn1)c1cc(Cl)cc(Cl)c1 (stereo not given in full) | – | – | – | – |
| – | 158 nM | – | – | – | – | – | – | N=C(N)Nc1cccc(C(=O)NCC(=O)NC(CC(=O)O)c2cc(Cl)cc(Cl)c2)c1 (stereo not given) | – | – | – | – |
| – | 79.4 nM | 100 nM | 126 nM | 63.1 nM | 2.72 | – | – | O=C(O)C[C@H](NC(=O)CCCCc1ccc2c(n1)NCCC2)c1cccc(C(F)(F)F)c1 | – | – | – | – |
| – | 6310 nM | > 10000 nM | > 10000 nM | 2000 nM | 2.61 | – | – | O=C(O)C[C@@H](NC(=O)CCCCc1ccc2c(n1)NCCC2)c1cccc(C(F)(F)F)c1 | – | – | – | – |
| – | 398 nM | 126 nM | 631 nM | 126 nM | 2.14 | – | – | O=C(O)CC(NC(=O)CCCCc1ccc2c(n1)NCCC2)c1ccc(Cl)cc1 (racemic) | – | – | – | – |
| – | 2000 nM | 100 nM | 794 nM | 79.4 nM | 1.56 | – | – | O=C(O)CC(NC(=O)CCCCc1ccc2c(n1)NCCC2)c1ccccc1 (racemic) | 10 | 10 | 10 | 10 |
| – | 1000 nM | 316 nM | 3980 nM | 100 nM | 1.88 | – | – | O=C(O)CC(NC(=O)CCCCc1ccc2c(n1)NCCC2)c1ccccc1F (racemic) | – | – | – | – |
| – | > 10000 nM | 2000 nM | > 10000 nM | 1580 nM | 1.92 | – | – | O=C(O)CC(NC(=O)CCCCc1ccc2c(n1)NCCC2)c1ccccc1Cl (racemic) | – | – | – | – |
| – | 398 nM | 50.1 nM | 1260 nM | 20 nM | 1.85 | – | – | Cc1ccccc1C(CC(=O)O)NC(=O)CCCCc1ccc2c(n1)NCCC2 (racemic) | – | – | – | – |
| – | > 10000 nM | 501 nM | > 10000 nM | 501 nM | 1.83 | – | – | COc1ccccc1C(CC(=O)O)NC(=O)CCCCc1ccc2c(n1)NCCC2 (racemic) | – | – | – | – |
| – | 794 nM | 31.6 nM | 1580 nM | 15.8 nM | 1.92 | 23 nM | – | O=C(O)CC(NC(=O)CCCCc1ccc2c(n1)NCCC2)c1cccc(F)c1 (racemic) | 10 | 10 | 10 | 10 |
| – | 251 nM | 79.4 nM | 501 nM | 25.1 nM | 2.3 | – | – | O=C(O)CC(NC(=O)CCCCc1ccc2c(n1)NCCC2)c1cccc(Cl)c1 (racemic) | – | – | – | – |
| – | 398 nM | 158 nM | 631 nM | 50.1 nM | 1.95 | – | – | Cc1cccc(C(CC(=O)O)NC(=O)CCCCc2ccc3c(n2)NCCC3)c1 (racemic) | – | – | – | – |
| – | 316 nM | 39.8 nM | 501 nM | 63.1 nM | 1.66 | – | – | COc1cccc(C(CC(=O)O)NC(=O)CCCCc2ccc3c(n2)NCCC3)c1 (racemic) | 10 | 10 | 10 | 10 |
| – | 501 nM | 100 nM | 501 nM | 63.1 nM | 1.75 | – | – | O=C(O)CC(NC(=O)CCCCc1ccc2c(n1)NCCC2)c1ccc(F)cc1 (racemic) | – | – | – | – |
| – | 794 nM | 39.8 nM | 1000 nM | 100 nM | 1.97 | – | – | Cc1ccc(C(CC(=O)O)NC(=O)CCCCc2ccc3c(n2)NCCC3)cc1 (racemic) | – | – | – | – |
| – | 501 nM | 25.1 nM | 501 nM | 50.1 nM | 1.64 | – | – | COc1ccc(C(CC(=O)O)NC(=O)CCCCc2ccc3c(n2)NCCC3)cc1 (racemic) | 10 | 10 | 10 | 10 |
| – | 398 nM | 79.4 nM | 794 nM | 398 nM | 1.47 | – | – | N#Cc1ccc(C(CC(=O)O)NC(=O)CCCCc2ccc3c(n2)NCCC3)cc1 (racemic) | – | – | – | – |
| – | 631 nM | 251 nM | 794 nM | 316 nM | 2.72 | – | – | O=C(O)CC(NC(=O)CCCCc1ccc2c(n1)NCCC2)c1ccc(C(F)(F)F)cc1 (racemic) | – | – | – | – |

| IC50 [1] | IC50 [2] | IC50 [3] | IC50 [4] | IC50 [5] | chromatographic logD [6] | IC50 [11] | logD [6] | Structure (SMILES) | Ratio IC50 [7] | Ratio IC50 [8] | Ratio IC50 [9] | Ratio IC50 [10] |
| --- | --- | --- | --- | --- | --- | --- | --- | --- | --- | --- | --- | --- |
| – | 631 nM | 158 nM | 794 nM | 501 nM | 2.85 | – | – | O=C(O)CC(NC(=O)CCCCc1ccc2c(n1)NCCC2)c1ccc(OC(F)(F)F)cc1 (racemic) | – | – | – | – |
| – | 631 nM | 126 nM | 794 nM | 398 nM | 1.08 | – | – | CS(=O)(=O)c1ccc(C(CC(=O)O)NC(=O)CCCCc2ccc3c(n2)NCCC3)cc1 (racemic) | – | – | – | – |
| – | 398 nM | 100 nM | 316 nM | 631 nM | 3.1 | – | – | O=C(O)CC(NC(=O)CCCCc1ccc2c(n1)NCCC2)c1ccc(-c2ccccc2)cc1 (racemic) | – | – | – | – |
| – | 251 nM | 200 nM | 1000 nM | 39.8 nM | 1.67 | – | – | N#Cc1cccc(C(CC(=O)O)NC(=O)CCCCc2ccc3c(n2)NCCC3)c1 (racemic) | – | – | – | – |
| – | 100 nM | 200 nM | 158 nM | 39.8 nM | 2.73 | – | – | O=C(O)CC(NC(=O)CCCCc1ccc2c(n1)NCCC2)c1cccc(C(F)(F)F)c1 (racemic) | – | – | – | – |
| – | 200 nM | 398 nM | 251 nM | 79.4 nM | 3.11 | – | – | O=C(O)CC(NC(=O)CCCCc1ccc2c(n1)NCCC2)c1cccc(OC(F)(F)F)c1 (racemic) | – | – | – | – |
| – | 7940 nM | 3980 nM | 10000 nM | 501 nM | 2.73 | – | – | O=C(O)CC(NC(=O)CCCCc1ccc2c(n1)NCCC2)c1cccc(Cl)c1Cl (racemic) | – | – | – | – |
| – | 200 nM | 50.1 nM | 200 nM | 100 nM | 2.62 | – | – | O=C(O)CC(NC(=O)CCCCc1ccc2c(n1)NCCC2)c1ccc(Cl)c(Cl)c1 (racemic) | – | – | – | – |
| – | 251 nM | 398 nM | 251 nM | 200 nM | 2.93 | – | – | O=C(O)CC(NC(=O)CCCCc1ccc2c(n1)NCCC2)c1cc(Cl)cc(Cl)c1 (racemic) | – | – | – | – |
| – | 200 nM | 63.1 nM | 501 nM | 63.1 nM | 2.29 | – | – | Cc1ccc(C(CC(=O)O)NC(=O)CCCCc2ccc3c(n2)NCCC3)cc1C (racemic) | – | – | – | – |
| – | 158 nM | 126 nM | 398 nM | 79.4 nM | 2.52 | – | – | O=C(O)CC(NC(=O)CCCCc1ccc2c(n1)NCCC2)c1ccc2c(c1)CCC2 (racemic) | – | – | – | – |
| – | 501 nM | 398 nM | 631 nM | 398 nM | 2.43 | – | – | Cc1cc(C)cc(C(CC(=O)O)NC(=O)CCCCc2ccc3c(n2)NCCC3)c1 (racemic) | – | – | – | – |
| – | 316 nM | 100 nM | 398 nM | 63.1 nM | 1.37 | – | – | COc1ccc(C(CC(=O)O)NC(=O)CCCCc2ccc3c(n2)NCCC3)cc1OC (racemic) | – | – | – | – |
| – | 251 nM | 15.8 nM | 794 nM | 12.6 nM | 1.47 | – | – | O=C(O)CC(NC(=O)CCCCc1ccc2c(n1)NCCC2)c1ccc2c(c1)OCO2 (racemic) | – | – | – | – |
| – | 100 nM | 316 nM | 251 nM | 126 nM | 3.1 | – | – | O=C(O)CC(NC(=O)CCCCc1ccc2c(n1)NCCC2)c1ccc(Cl)c(C(F)(F)F)c1 (racemic) | – | – | – | – |
| – | 63.1 nM | 158 nM | 126 nM | 63.1 nM | – | – | 3.28 | O=C(O)CC(NC(=O)CCCCc1ccc2c(n1)NCCC2)c1ccc(Cl)c(C(F)(F)F)c1 (single isomer, unassigned; enantiomer 1) | – | – | – | – |
| – | 158 nM | 126 nM | 100 nM | 251 nM | – | – | 2.8 | O=C(O)CC(NC(=O)CCCCc1ccc2c(n1)NCCC2)c1cc(Cl)cc(Cl)c1 (single isomer, unassigned; enantiomer 2) | – | – | – | – |
| – | > 10000 nM | 1580 nM | > 10000 nM | 631 nM | – | – | 3.25 | O=C(O)CC(NC(=O)CCCCc1ccc2c(n1)NCCC2)c1ccc(Cl)c(C(F)(F)F)c1 (single isomer, unassigned; enantiomer 2) | – | – | – | – |
| – | 6310 nM | > 10000 nM | > 10000 nM | 1000 nM | – | – | 2.97 | O=C(O)CC(NC(=O)CCCCc1ccc2c(n1)NCCC2)c1cc(Cl)cc(Cl)c1 (stereo in doubt; 37E1) | – | – | – | – |
